Like-named read-outs stand apart in the source and are kept apart here.
Key:
Format in all cases: cell-based
clinical strains of HIV = experiment: microbe, parasite or virus in culture; settings: for IC90 / IC50: Human immunodeficiency virus 1, PBMC, 336 h; for IC90: read-out: IC90, viral growth in HIV-infected PBMCs; for IC50: read-out: IC50 (nM) HIV-infected PBMCs
Procedure: PBMCs from HIV infected patients were depleted of CD8^+ T cells (Supplementary Fig. S3), activated by anti-CD3 and anti-CD28 antibodies, and treated 20 d with indicated concentrations of drug/compound. HIV particle formation was quantitated by p24^CA ELISA of cell supernatants and viability of cells were assayed by XTT. […] Graphs of viral growth (p24 protein levels) and cell viability (gray circles, adjacent y-axis) of cells treated with drug/compounds (red triangles) or DMSO (black circles) are shown. The drug 3TC and the CS digoxin (d–e) were provided for comparison. […] Dose-response curves of CS effects on HIV replication (relative Gag expression, black circles) and cell viability (gray circles) were measured on day 14.
PBMCs were then seeded to 24-well plates in the presence/absence of indicated drug/compounds (0.5 mL final) which were pre-diluted in RPMI^+++ in the same manner as described above. Every 3–4 days, ~0.25 mL of media was harvested for assays and replenished with ~0.25 mL of fresh medium with drug/compound and 20 U/mL of IL-2. HIV growth in cultures was monitored by p24^CA ELISA of cell supernatants harvested (detailed below) and the effect of compounds on cell viability were monitored by XTT assay.
(§1) To monitor HIV-1 gene expression or replication, Gag release into cell culture supernatants were assayed by ELISA using a p24^CA antigen capture assay kit (AIDS & Cancer Virus Program, NCI-Frederick, Frederick, MD USA). Media harvested from HIV clinical isolates were diluted ~10 fold (or as necessary) prior to performing this assay. For analysis of HIV-1 and SR protein expression (and phosphorylation states with calf intestinal alkaline phosphatase treatments), cells were lysed and analyzed by western blot as previously outlined. Phosphatase inhibitors (e.g. 10 mM sodium fluoride, 2 mM sodium orthovanadate) were added to solutions requiring phospho protein analyses. An anti-chicken NKA antibody (α6F, #a6F–c, Developmental Studies Hybridoma Bank, The University of Iowa, contributed by Douglas M. Fambrough, The Johns Hopkins University) was used as specified to detect NKA α1- and β1-subunits across species. […] Activation of MAPKs was determined by western blot quantitation and calculation of phospho/total protein levels. […] Images were exported as TIF files for assembly, rotation, and equal brightness/contrast adjustments in ImageJ or Microsoft Powerpoint. Some lanes were cropped and rearranged from the same blot/gel as indicated. In representative gel/blot sets, samples were electrophoresed from the same experiment as controls, resolved simultaneously on identically cast gel(s), transferred to same PVDF (by either wet electrophoretic or by Bio-Rad Trans-Blot® Turbo Transfer System), and detected at same time. Marked locations of molecular weight (MW) standards are shown on the left as a reference. […] SUnSET analysis of total cellular protein synthesis. HeLa rtTA-HIV-ΔMls cells were cultured in the presence/absence of compound and pathway inhibitor (if any) and Dox induced for ~24 h as already described, then treated with puromycin (10 μg/mL, Sigma-Aldrich, #P8833) for 30 min to label nascent proteins prior to harvest. As control, 10 µM of cycloheximide (Sigma-Aldrich, #C4849) was added to some cells prior to puromycin treatment. Cells were subsequently washed, whole cell lysates prepared, and proteins quantified by western blot using an anti-puromycin antibody (EMD Millipore, #anti-12D10) as described above. Transfection of plasmid DNA into cells. Transfection of pCMV6-HA-AKT-1 (WT, KM, or Myr) or CMV myc and with CMV tTA pA and CMV PLAP plasmids into HeLa rtTA-HIV-ΔMls cells were performed by polyethylene imine (PEI) transfection as previously described[9],[10].

HIV-1 US RNAs = experiment: FISH localization of HIV-1 US RNA in HeLa rtTA-HIV(Gag-GFP) cells; settings: ~IC90s of CSs
Text: Figure 4 CSs suppress HIV-1 gene expression by altering viral RNA processing. […] (a,b) CSs induce oversplicing of HIV-1 RNAs (n ≥ 3, mean, s.e.m.). (a) Diagram of the primer positions (arrow heads) used for qRT-PCR. (b) Graph of the relative amount of US (black), SS (white), and MS (gray) HIV-1 RNAs in cells treated with various CSs. (c) Nuclear export of HIV-1 US RNAs in cells is altered by CSs (representative n ≥ 4). HIV-1 US RNAs were localized by FISH after treating HeLa rtTA-HIV(Gag-GFP) cells as described above but with ~IC90s of CSs. Nuclei were stained by DAPI and images captured at 630 × magnification. (d) CSs induce differential post-translational modification of SR proteins (representative n ≥ 3). SRp20, Tra2β, and tubulin were analyzed by immunoblot of HeLa rtTA-HIV-ΔMls cells treated as described above except cells of this representative blot were treated 3 d with ~IC50s of CSs. (g) Lanes were cropped and assembled from the same gel/blot per box (Supplementary Fig. S4d).
RNA was extracted from cells, reverse transcribed, and resulting cDNAs subject to qRT-PCR quantification of HIV-1 mRNAs as previously described except reactions used iTaq™ Universal SYBR® Green Supermix (Bio-Rad, #172-5120) run on a Bio-Rad CFX384 Touch™ Real-Time PCR Detection System and analyzed with CFX Manager™[9]. NKA α1, 2, and 3 subunits were detected by published primers, amplified by iTaq using the same cycling temperature and times previously described for HIV-1 US/MS cDNAs except α1, 2, and 3 annealing temperatures were 61 °C[9],[73]. All data was normalized to β-actin as internal loading control. Primers sequences for NKA α subunits were as follows: α1 forward (5′-[…] -3′), α1 reverse (5′- […] -3′), α2 forward (5′-[…]-3′), α2 reverse (5′-[…]-3′), α3 forward (5′-[…]-3′), and α3 reverse (5′-GGGCAGACTCAGACGCATC-3′). Monitoring the subcellular localization of HIV-1 genomic RNA. HeLa rtTA-HIV(Gag-GFP) cells were seeded on cover slips, treated with drug/compound, and processed for FISH to detect HIV-1 US RNAs using Stellaris™ probes (Biosearch Technologies) as previously detailed[10],[11].

HIV-1 Rev = experiment: Immunoblot of HIV-1 Rev (p19) in HeLa rtTA-HIV-ΔMls cells
Procedure: as §1

[1] = p24CA ELISA, day 14, inferred near maximal IC50s

SMILES | IC90 (clinical strains of HIV; Day14, p24CA ELISA) | IC50 (clinical strains of HIV; [1]) | HIV-1 US RNA subcellular localization (HIV-1 US RNAs) | Rev accumulation (HIV-1 Rev) | concentration to inhibit viral replication in HIV-infected PBMCs, fold lower than serum concentration in patients treated for heart conditions (clinical strains of HIV) | IC50 (clinical strains of HIV) | IC90 (clinical strains of HIV)
C[C@]12CC[C@H](O)C[C@H]1CC[C@@H]1[C@@H]2CC[C@]2(C)[C@@H](C3=CC(=O)OC3)CC[C@]12O [Digitoxigenin] | 2 nM | ~1.1 nM | Some residual cytoplasmic staining |  |  |  | 
C[C@H]1O[C@@H](O[C@H]2[C@@H](O)C[C@H](O[C@H]3[C@@H](O)C[C@H](O[C@H]4CC[C@@]5(C)[C@H](CC[C@@H]6[C@@H]5CC[C@]5(C)[C@@H](C7=CC(=O)OC7)CC[C@]65O)C4)O[C@@H]3C)O[C@@H]2C)C[C@H](O)[C@@H]1O [Digitoxin] | 7.5 nM | ~1.3 nM | Some residual cytoplasmic staining | no effect on Rev accumulation | 15–26 fold |  | 
C[C@]12CC[C@H](O)C[C@H]1CC[C@@H]1[C@@H]2C[C@@H](O)[C@]2(C)[C@@H](C3=CC(=O)OC3)CC[C@]12O [Digoxigenin] |  |  | almost exclusively within the nucleus |  |  |  | 
C[C@H]1O[C@@H](O[C@H]2[C@@H](O)C[C@H](O[C@H]3[C@@H](O)C[C@H](O[C@H]4CC[C@@]5(C)[C@H](CC[C@@H]6[C@@H]5C[C@@H](O)[C@]5(C)[C@@H](C7=CC(=O)OC7)CC[C@]65O)C4)O[C@@H]3C)O[C@@H]2C)C[C@H](O)[C@@H]1O [Digoxin] |  |  | almost exclusively within the nucleus | reduce Rev accumulation |  | ~1.1 nM | 2 nM
CC(=O)O[C@H]1C[C@H](O[C@H]2[C@@H](O)C[C@H](O[C@H]3[C@@H](O)C[C@H](O[C@H]4CC[C@@]5(C)[C@H](CC[C@@H]6[C@@H]5C[C@@H](O)[C@]5(C)[C@@H](C7=CC(=O)OC7)CC[C@]65O)C4)O[C@@H]3C)O[C@@H]2C)O[C@H](C)[C@H]1O[C@@H]1O[C@H](CO)[C@@H](O)[C@H](O)[C@H]1O [Lanatoside C] |  |  |  | reduce Rev accumulation |  |  | 
C[C@@H]1O[C@@H](O[C@H]2C[C@@H](O)[C@]3(CO)[C@H]4[C@H](O)C[C@]5(C)[C@@H](C6=CC(=O)OC6)CC[C@]5(O)[C@@H]4CC[C@]3(O)C2)[C@H](O)[C@H](O)[C@H]1O [Ouabain] |  |  | Some residual cytoplasmic staining | no effect on Rev accumulation |  |  | 

From paper PMC5770468, “Cardiac glycoside/aglycones inhibit HIV-1 gene expression by a mechanism requiring MEK1/2-ERK1/2 signaling” (Scientific Reports, 2018)
